Laboratory results from patent US9408871B2, “Methods for inhibiting complement activation and uses thereof” (THE UNIVERSITY OF BRITISH COLUMBIA, priority 2013, dated 2016).

Tests used:
[1] = system: total complement-mediated hemolytic activity; experiment: total complement-mediated hemolytic activity assay (4.5% NHS, rabbit erythrocytes); type: cell-based, human; details: rRBC, 30 min, read-out: IC50 (concentration required to achieve half maximal inhibition of lysis), total hemolytic activity
Source text: Erythrocyte lysis assays were used to measure complement-mediated hemolytic activity. Erythrocyte (RBC) lysis assays as previously described^18,37 were used to measure complement activity. For alternative pathway assays and for total hemolytic activity assays, unsensitized rabbit erythrocytes were used. Chicken erythrocytes were used for the terminal pathway assays.
Erythrocytes were washed three times in GVB with the reaction buffers as indicated, and counted using the Advia 120 Hematology System from Siemens (Siemens, Erlangen, Germany). Reactions in 300 μL were allowed to proceed for 30 min at 37° C., after which unlysed cells were pelleted by centrifugation at 600×g. Erythrocyte lysis, reflected by the released hemoglobin in the supernatant, was quantified by measuring the absorbance at 405 nm using the Mithras LB 940 microplate reader from Berthold Technologies (Bad Wildbad, Germany). Percent lysis was determined relative to the control of 100% lysis with H2O. […]
For total hemolytic activity assays, normal human serum (NHS) (4.5%), polyphosphate, and rabbit erythrocytes (rRBC) (6.0×10^7 cells/mL) were added sequentially to initiate lysis. […] Increasing absorbance corresponds to increasing hemoglobin release from lysed red blood cells. The linear region of the curve was determined to be between 20-80% lysis, corresponding to 2.5-4.5% serum. […]

[2] = system: retinal pigmented epithelial cells (ARPE-19); experiment: protection against H2O2 oxidative stress, microscopy; type: cell-based, human; details: 100 μM to 1000 μM, H2O2 24 hours
Method: Using cultured cell lines as models of choroidal endothelial cells (CEC; RF/6A)^73 and retinal pigmented epithelial cells (ARPE-19)^74, we tested whether polyphosphate (polyP) could protect against stress-induced alterations in cell survival and deposition of terminal complement activation products (C5b-9).
CEC (FIG. 21) or ARPE-19 (FIG. 22) cells were grown to ˜80% confluence in DMEM+10% serum, and then incubated with varying concentration of hydrogen peroxide (H2O2) for 24 hours in the presence of varying concentrations of polyP1000.

[3] = system: choroidal neovascularization; experiment: experimental laser-induced choroidal neovascularization (CNV) model, retina whole mounts; type: in vivo; details: rat, intravitreal injection 10′ after laser, final estimated concentration 200 μM, 5 days
Method: Eleven-week-old female Long Even (LE) rats (Charles River Laboratory, Wilmington, Mass.) weighing 256 to 315 g were used. The animals were handled in accordance with institutional guidelines and the ARVO Statement for the Use of Animals in Ophthalmic and Vision Research. The rats were anesthetized by intramuscular injection of a 1 mL/kg mixture (1:1) of ketamine hydrochloride (40 mg/kg) and xylazine hydrochloride (10 mg/ml), and their pupils were dilated with tropicamide (0.5% Mydrin). Experimental choroidal neovascularization (CNV) was created as described previously (Takehana et al., Invest Ophthalmol Vis Sci, 1999, 40 (2):459-66). […]
After laser treatment, under anesthesia, intravitreal injections were performed on a lasered eye under a dissecting microscope (Stereo dissection microscope, SMZ 1000; Nikon, Tokyo, Japan). […] After the procedure, animals were monitored in a recovery enclosure until they resumed baseline normal activity levels. […]
Each eye cup flatmount preparation was analyzed using a confocal laser-scanning microscope (Zeiss-LSM 510 META). […] Intensity and size of GSL-IB4 and C5b-9 immunohistochemistry were analyzed using image-processing and image-analysis software Image J 1.37 (developed by Wayne Rasband, National Institute of Health, Bethesda, Md., USA). […]

O=P(O)(O)O [P1, Orthophosphate]
IC50 [1]: ~3.5 mM | protective effect against H2O2 oxidative stress, ARPE-19 [2]: No effect was observed | neovascularization and deposition of MAC on retina after laser injury [3]: is not protective
